Experimental data from patent publication US8192962B2, “Processes for detecting toxic substances” (Daikin Industries, Ltd., priority 2001, dated 2012).

Test system: Metabolism protein genes
Experiment: DNA chip mRNA expression in yeast, metabolism protein genes (Table 7)
Assay type: cell-based, Saccharomyces cerevisiae S288C
Procedure, shortened: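 Measured as treated-to-untreated fluorescence ratio on a full-genome yeast DNA chip. Cells (S288C, YPD, 25° C.) were exposed in log phase for two hours to one chemical, dosed to curb growth without killing.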

C[S+](C)[O-] [(15), dimethylsulfoxide]
1.5: level of expressed mRNA in the presence/in the absence of chemical substance (yeast gene YJR077C) | level of expressed mRNA in the presence/in the absence of chemical substance (yeast gene YLR058C) | The level of expressed mRNA in the presence of chemical substance/The level of expressed mRNA in the absence of chemical substance (yeast gene YLR299W) | level of expressed mRNA in the presence/in the absence of chemical substance (yeast gene YOL108C) | level of expressed mRNA in the presence/in the absence of chemical substance (yeast gene YOR002W) | level of expressed mRNA in the presence/in the absence of chemical substance (yeast gene YPL135W)
2.2: level of expressed mRNA in the presence/in the absence of chemical substance (yeast gene YLR044C)
1.8: The level of expressed mRNA in the presence of chemical substance/The level of expressed mRNA in the absence of chemical substance (yeast gene YKL152C) | level of expressed mRNA in the presence/in the absence of chemical substance (yeast gene YOR085W)
2.5: The level of expressed mRNA in the presence of chemical substance/The level of expressed mRNA in the absence of chemical substance (yeast gene YLR180W) | The level of expressed mRNA in the presence of chemical substance/The level of expressed mRNA in the absence of chemical substance (yeast gene YNL104C)
6.7: The level of expressed mRNA in the presence of chemical substance/The level of expressed mRNA in the absence of chemical substance (yeast gene YMR296C)
0.6: level of expressed mRNA in the presence/in the absence of chemical substance (yeast gene YKL148C) | level of expressed mRNA in the presence/in the absence of chemical substance (yeast gene YML022W) | level of expressed mRNA in the presence/in the absence of chemical substance (yeast gene YMR011W) | The level of expressed mRNA in the presence of chemical substance/The level of expressed mRNA in the absence of chemical substance (yeast gene YMR271C) | level of expressed mRNA in the presence/in the absence of chemical substance (yeast gene YOR251C) | The level of expressed mRNA in the presence of chemical substance/The level of expressed mRNA in the absence of chemical substance (yeast gene YOR336W) | level of expressed mRNA in the presence/in the absence of chemical substance (yeast gene YPL028W) | level of expressed mRNA in the presence/in the absence of chemical substance (yeast gene YPL148C)
1.6: level of expressed mRNA in the presence/in the absence of chemical substance (yeast gene YJL167W) | level of expressed mRNA in the presence/in the absence of chemical substance (yeast gene YKL060C) | level of expressed mRNA in the presence/in the absence of chemical substance (yeast gene YLR304C) | The level of expressed mRNA in the presence of chemical substance/The level of expressed mRNA in the absence of chemical substance (yeast gene YNL012W) | The level of expressed mRNA in the presence of chemical substance/The level of expressed mRNA in the absence of chemical substance (yeast gene YNR019W) | level of expressed mRNA in the presence/in the absence of chemical substance (yeast gene YOL086C) | level of expressed mRNA in the presence/in the absence of chemical substance (yeast gene YOR128C) | level of expressed mRNA in the presence/in the absence of chemical substance (yeast gene YOR348C)
2.7: The level of expressed mRNA in the presence of chemical substance/The level of expressed mRNA in the absence of chemical substance (yeast gene YLR300W) | The level of expressed mRNA in the presence of chemical substance/The level of expressed mRNA in the absence of chemical substance (yeast gene YOL058W)
1.2: The level of expressed mRNA in the presence of chemical substance/The level of expressed mRNA in the absence of chemical substance (yeast gene YJL172W) | level of expressed mRNA in the presence/in the absence of chemical substance (yeast gene YJL216C) | level of expressed mRNA in the presence/in the absence of chemical substance (yeast gene YKL157W) | level of expressed mRNA in the presence/in the absence of chemical substance (yeast gene YMR015C) | The level of expressed mRNA in the presence of chemical substance/The level of expressed mRNA in the absence of chemical substance (yeast gene YOL153C) | The level of expressed mRNA in the presence of chemical substance/The level of expressed mRNA in the absence of chemical substance (yeast gene YOR136W)
0.9: The level of expressed mRNA in the presence of chemical substance/The level of expressed mRNA in the absence of chemical substance (yeast gene YKL215C) | level of expressed mRNA in the presence/in the absence of chemical substance (yeast gene YLR006C) | level of expressed mRNA in the presence/in the absence of chemical substance (yeast gene YLR056W) | The level of expressed mRNA in the presence of chemical substance/The level of expressed mRNA in the absence of chemical substance (yeast gene YML070W) | The level of expressed mRNA in the presence of chemical substance/The level of expressed mRNA in the absence of chemical substance (yeast gene YMR105C) | level of expressed mRNA in the presence/in the absence of chemical substance (yeast gene YMR205C) | The level of expressed mRNA in the presence of chemical substance/The level of expressed mRNA in the absence of chemical substance (yeast gene YNL037C) | The level of expressed mRNA in the presence of chemical substance/The level of expressed mRNA in the absence of chemical substance (yeast gene YNL231C) | level of expressed mRNA in the presence/in the absence of chemical substance (yeast gene YPR165W) | The level of expressed mRNA in the presence of chemical substance/The level of expressed mRNA in the absence of chemical substance (yeast gene YPR167C) | level of expressed mRNA in the presence/in the absence of chemical substance (yeast gene YPR183W)
5.6: The level of expressed mRNA in the presence of chemical substance/The level of expressed mRNA in the absence of chemical substance (yeast gene YMR189W)
2.3: The level of expressed mRNA in the presence of chemical substance/The level of expressed mRNA in the absence of chemical substance (yeast gene YNL331C)
1.7: level of expressed mRNA in the presence/in the absence of chemical substance (yeast gene YKR034W) | level of expressed mRNA in the presence/in the absence of chemical substance (yeast gene YLR089C)
2.1: level of expressed mRNA in the presence/in the absence of chemical substance (yeast gene YNL192W)
2.4: The level of expressed mRNA in the presence of chemical substance/The level of expressed mRNA in the absence of chemical substance (yeast gene YLR348C) | level of expressed mRNA in the presence/in the absence of chemical substance (yeast gene YLR354C)
1.0: level of expressed mRNA in the presence/in the absence of chemical substance (yeast gene YJL121C) | The level of expressed mRNA in the presence of chemical substance/The level of expressed mRNA in the absence of chemical substance (yeast gene YJR137C) | The level of expressed mRNA in the presence of chemical substance/The level of expressed mRNA in the absence of chemical substance (yeast gene YKL035W) | level of expressed mRNA in the presence/in the absence of chemical substance (yeast gene YLR284C) | The level of expressed mRNA in the presence of chemical substance/The level of expressed mRNA in the absence of chemical substance (yeast gene YNR002C) | The level of expressed mRNA in the presence of chemical substance/The level of expressed mRNA in the absence of chemical substance (yeast gene YNR059W) | The level of expressed mRNA in the presence of chemical substance/The level of expressed mRNA in the absence of chemical substance (yeast gene YOL143C) | The level of expressed mRNA in the presence of chemical substance/The level of expressed mRNA in the absence of chemical substance (yeast gene YOR130C) | The level of expressed mRNA in the presence of chemical substance/The level of expressed mRNA in the absence of chemical substance (yeast gene YPL017C) | level of expressed mRNA in the presence/in the absence of chemical substance (yeast gene YPR113W)
37.3: level of expressed mRNA in the presence/in the absence of chemical substance (yeast gene YMR323W)
1.3: level of expressed mRNA in the presence/in the absence of chemical substance (yeast gene YMR083W) | The level of expressed mRNA in the presence of chemical substance/The level of expressed mRNA in the absence of chemical substance (yeast gene YNR033W)
3.9: The level of expressed mRNA in the presence of chemical substance/The level of expressed mRNA in the absence of chemical substance (yeast gene YLR307W)
1.4: The level of expressed mRNA in the presence of chemical substance/The level of expressed mRNA in the absence of chemical substance (yeast gene YJL099W) | level of expressed mRNA in the presence/in the absence of chemical substance (yeast gene YNL025C) | The level of expressed mRNA in the presence of chemical substance/The level of expressed mRNA in the absence of chemical substance (yeast gene YOL126C) | level of expressed mRNA in the presence/in the absence of chemical substance (yeast gene YOR103C)
5.4: The level of expressed mRNA in the presence of chemical substance/The level of expressed mRNA in the absence of chemical substance (yeast gene YNL332W)
1.9: level of expressed mRNA in the presence/in the absence of chemical substance (yeast gene YOL156W)
3.3: The level of expressed mRNA in the presence of chemical substance/The level of expressed mRNA in the absence of chemical substance (yeast gene YKL104C) | The level of expressed mRNA in the presence of chemical substance/The level of expressed mRNA in the absence of chemical substance (yeast gene YNL106C)
1.1: level of expressed mRNA in the presence/in the absence of chemical substance (yeast gene YJR143C) | The level of expressed mRNA in the presence of chemical substance/The level of expressed mRNA in the absence of chemical substance (yeast gene YKL091C) | The level of expressed mRNA in the presence of chemical substance/The level of expressed mRNA in the absence of chemical substance (yeast gene YKL213C) | The level of expressed mRNA in the presence of chemical substance/The level of expressed mRNA in the absence of chemical substance (yeast gene YML054C) | level of expressed mRNA in the presence/in the absence of chemical substance (yeast gene YOR142W) | level of expressed mRNA in the presence/in the absence of chemical substance (yeast gene YOR178C) | level of expressed mRNA in the presence/in the absence of chemical substance (yeast gene YPL057C)
0.8: level of expressed mRNA in the presence/in the absence of chemical substance (yeast gene YMR261C) | The level of expressed mRNA in the presence of chemical substance/The level of expressed mRNA in the absence of chemical substance (yeast gene YNL045W) | level of expressed mRNA in the presence/in the absence of chemical substance (yeast gene YOR176W)
0.7: level of expressed mRNA in the presence/in the absence of chemical substance (yeast gene YLR081W) | level of expressed mRNA in the presence/in the absence of chemical substance (yeast gene YLR372W) | level of expressed mRNA in the presence/in the absence of chemical substance (yeast gene YOL116W) | level of expressed mRNA in the presence/in the absence of chemical substance (yeast gene YOR108W)
